Laboratory results taken from patent US10858305B2, “Perillyl alcohol-3-bromopyruvate conjugate and methods of treating cancer” (NeOnc Technologies, Inc., priority 2016, dated 2020).
Entries after “also recorded” stand apart in the source; their conditions may differ.

Key:
[1] = tested on: HCT116 colon cancer cells; test: MTT assay with pan-caspase inhibitor zVAD pre-treatment; type: cell-based, human; conditions: 50 μM zVAD 1 hour before drug, MTT after 24 hours
Procedure: (§1) (A) FACS analysis of HCT116 cells after treatment for 2, 4, or 8 hours with vehicle, 30 μM 3-BP, 30 μM NEO218, or 1 μM staurosporine (STS). […] (B) Western blot analysis of apoptotic markers. In the top section, MDA-MB-231 cells were treated with 30 μM NEO218 or 1 μM STS for various time points. In the lower section, HCT116 cells were treated with the indicated concentrations of 3-BP, NEO218, or STS for 16 hours. In all cases cell lysates were prepared and analyzed for the well-established apoptotic markers cleaved PARP, cleaved (i.e., activated) caspase 7 (cl. C-7), and phosphorylated (i.e., active) H2AX. Actin was used as a loading control. (C) HCT116 cells were pretreated with 50 μM Z-VAD-FMK for one hour, followed by the addition of increasing concentrations of 3-BP or NEO218. Cell viability was determined by MTT assay 24 hours later. Data points are averages from n=3.
The capacity for NEO218 to induce apoptosis was further evaluated in a series of experiments using an MTT assay. The apoptosis-blocker zVAD (z-VAD-FMK), an agent that acts as a pan-caspase inhibitor, was used. HCT116 colon cancer cells were treated for 1 hour with or without 50 μM zVAD, followed by increasing concentrations of NEO218 or 3-BP. Twenty-four hours thereafter, cell viability was determined by MTT assay.

[2] = tested on: HCT116 cells; test: FACS analysis for annexin V and propidium iodide; type: cell-based, human; conditions: for incorporation of PI (necrosis) versus annexin V (apoptosis): 2, 4 or 8 hours of treatment; for earliest detection of shift to PI-positive quadrant after onset of treatment: HCT116, 30 μM; for PI-positive cells at 8 hours: HCT116, 8 hours
Procedure: as §1
In the absence of indications that apoptotic mechanisms played a significant role in cell death induced by NEO218, necrosis was investigated as a potential key mechanism. The distinction between apoptotic and necrotic cell death was made by measuring annexin V staining (a marker of apoptosis) and PI (propidium iodide) staining (a marker of necrosis) of drug-treated cells, in comparison to non-drug-treated cells (as a control). Measurements of annexin V and PI were done by FACS analysis after 2, 4, or 8 hours of treatment. Cells were treated with NEO218, 3-BP, and staurosporine (individually), and incorporation of propidium iodide (PI, a marker of necrotic cell death) or annexin V (a marker for apoptosis) was determined by fluorescence-activated cell sorting.
The results are organized in FIG. 8 as follows: no treatment (top row), 3-BP (second row), NEO218 (third row), and staurosporine (bottom row).
Characterization of cell death was performed by flow cytometry using the Alexa Fluor® 488 Annexin V/Dead Cell Apoptosis kit (Thermo Fisher Scientific). This kit contains recombinant, green fluorophore-conjugated annexin V, which reacts with apoptotic cells, and DNA-binding, red-fluorescent propidium iodide (PI), which is impermeant to live and apoptotic cells, but stains dead cells. The different cell populations can be distinguished by green fluorescence (apoptotic cells), red fluorescence (necrotic/dead cells), and no fluorescence (live cells) during flow cytometry with 488 nm laser excitation. Control or drug-treated cells were processed as per manufacturer's instructions, followed by flow cytometry of 10,000 cells per point with an LSR II (BD Biosciences, San Jose, Calif.) at the USC Flow Cytometry Core Facility.

[3] = target: GAPDH (Homo sapiens, UniProt P04406); test: GAPDH activity assay, drugs added to cell lysates (cell-free); type: biochemical; design: endogenous in cells; host or cells: MDA-MB-231 cell lysate; conditions: for inhibition of GAPDH enzyme activity: cell lysates incubated with drug for 1 hour; for effect of NAC or GSH on drug-induced inhibition of GAPDH activity: cell lysates, 1 mM NAC or GSH
Procedure: (A) HCT116 cells were treated with 40 μM 3-BP or NEO218 in the presence or absence of 1 mM NAC, 1 mM GSH, or 50 mM methyl-pyruvate (or sodium pyruvate, which produced similar outcomes). Cell viability was determined 24 hours later by MTT assay. (B) HCT116 cells were treated with 30 or 100 μM 3-BP or NEO218. After 30 minutes, cell lysates were prepared and analyzed for GAPDH activity. (C) Lysates from non-drug-treated MDA-MB-231 cells were mixed with 3-BP or NEO218 in the presence or absence of NAC or GSH at the concentrations mentioned in A. After 1 hour of incubation, GAPDH activity was determined. GAPDH activity in the absence of drug treatment was set at 100% (corresponding to 0.06 units/min×10^6 cells).
The capacity of NEO218 to inhibit the enzymatic function of GAPDH in a cell-free system was investigated. Cell lysates were incubated with NEO218 and 3-BP (individually) for 1 hour, and enzymatic activity of GAPDH (glyceraldehyde-3-phosphate dehydrogenase) was determined. Increasing concentrations of NEO218 and 3-BP were applied. Separately, 50 μM NEO218 and 3-BP, respectively, were applied together with 1 mM NAC or GSH. The enzymatic activity of GAPDH was determined with the use of a commercially available GAPDH activity assay kit.
Enzymatic activity of GAPDH in vitro was measured with the Colorimetric GAPDH Assay kit (ScienCell Research Laboratories, Carlsbad, Calif.). This assay is based on the oxidization of β-NADH to β-NAD in the presence of 3-phosphoglyceric acid, ATP and GAPDH. GAPDH activity is determined by assaying the rate of NADH oxidation, which is proportional to the reduction in absorbance at 340 nm over time (ΔA340 nm/min). One hundred thousand cells were lysed in 100 μL cell lysis buffer and incubated with the above components. Changes in absorbance over 10 minutes were calculated and normalized to untreated controls. Data are presented as percentage of controls. Two types of drug treatments were performed: in one approach, drugs were added to proliferating cells for 30 minutes under regular cell culture conditions; in the other approach, drugs were added to cell lysates for 1 hour at 4° C.

GAPDH, sequence (P04406 whole entry): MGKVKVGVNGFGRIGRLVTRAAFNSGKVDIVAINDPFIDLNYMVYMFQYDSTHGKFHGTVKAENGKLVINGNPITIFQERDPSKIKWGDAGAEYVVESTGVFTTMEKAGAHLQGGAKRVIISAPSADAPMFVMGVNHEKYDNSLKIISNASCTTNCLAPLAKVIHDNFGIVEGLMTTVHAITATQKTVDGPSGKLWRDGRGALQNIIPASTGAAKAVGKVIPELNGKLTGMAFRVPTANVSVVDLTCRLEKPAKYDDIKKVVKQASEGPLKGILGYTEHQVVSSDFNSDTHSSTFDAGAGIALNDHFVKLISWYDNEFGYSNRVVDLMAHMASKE

| Compound | effect of zVAD pre-treatment on drug-induced cell death [1] | incorporation of PI (necrosis) versus annexin V (apoptosis) [2] | incorporation of PI (necrosis) versus annexin V (apoptosis) ([2]; listed as 3-GP) | earliest detection of shift to PI-positive quadrant after onset of treatment [2] | PI-positive cells at 8 hours [2] | inhibition of GAPDH enzyme activity [3] | effect of NAC or GSH on drug-induced inhibition of GAPDH activity [3] | time to initiation of cell death ([2]; FIG. 8 and LDH time course of FIG. 4) |
| --- | --- | --- | --- | --- | --- | --- | --- | --- |
| O=C(O)C(=O)CBr [3-BP, 3-bromopyruvate] | did not affect the cytotoxic IC50; also recorded: did not prevent induction of cell death | vigorous incorporation of PI, but very little annexin V | move straight from the bottom left quadrant to the upper right quadrant | 2 h | the majority of cells was PI-positive | potent inhibition of GAPDH enzyme activity; also recorded: potently decreased enzymatic GAPDH activity | effectively prevented the drug-induced inhibition of GAPDH activity; also recorded: completely prevented | – |
| C=C(C)[C@@H]1CC=C(COC(=O)C(=O)CBr)CC1 [NEO218, 3-bromo-2-oxo-propionic acid 4-isopropenyl-cyclohex-1-enylmethyl ester] | did not affect the cytotoxic IC50; also recorded: did not prevent induction of cell death | move straight from the bottom left quadrant to the upper right quadrant; also recorded: vigorous incorporation of PI, but very little annexin V | – | 2 h | the majority of cells was PI-positive | potent inhibition of GAPDH enzyme activity; also recorded: potently decreased enzymatic GAPDH activity | effectively prevented the drug-induced inhibition of GAPDH activity; also recorded: completely prevented | 1 to 2 h |
